The source of these data is patent US9398761B2, “Transgenic animal model of mood disorders” (BRAINCO BIOPHARMA, S.L., priority 2012, dated 2016).

For this assay, the system named is wild-type (WT) and PTN transgenic (TG) mice. Put plainly: Novelty Suppressed Feeding Test after chronic fluoxetine treatment. Type of assay: in vivo, mouse. The following applies: 4 weeks; for Latency to feed, treated versus untreated: fluoxetine in drinking water 160 mg/l, one-way ANOVA on rank-transformed data.

Each structure is given as a SMILES string. “Also recorded” adds a separate entry of the source.

Protocol: Novelty suppressed feeding test assesses anxiety and/or depression by measuring the latency of an animal to approach and eat food in a novel environment following chronic treatment with antidepressants. Mice (WT=14 and TG=14) were separated in two experimental groups: Without fluoxetine treatment and with fluoxetine treatment. The Fluoxetine was delivered ad libitum in the drinking water at a concentration of 160 mg/l (approximately doses of 20-25 mg/kg/day) during 4 weeks. Mice were weighed and food was removed from their cage. Twenty four hr after removal of food, mice were transferred to the testing room, placed in a clean holding cage and allowed to habituate for at least 30 min. The testing apparatus consisted of a clear Plexiglas open-field (50×50×25 cm) under an aversive condition (100 lux luminosity). The floor was covered with 2 cm of corncob bedding. A small piece of mouse chow was placed in the center of the arena. At the start of the experiment, each mouse was placed in the corner of the testing area, and the time to the first feeding event was recorded. After all mice from a single cage were tested, mice were returned to their home cage. A longer latency to feed reflects an anxiety-like behaviour. […] Measurement of Latency to feed were rank-transformed (Conover and Iman, 1981) and subjected to a Two-way ANOVA having two levels of genotype (wild-type or WT and transgenic or TG) and two levels of treatment (without fluoxetine or −Flx and with fluoxetine or +Flx).

For `CNCCC(Oc1ccc(C(F)(F)F)cc1)c1ccccc1` (stereo not shown) [Fluoxetine], the “Sensitivity to the effect of fluoxetine, Tg compared with Wt” value (Novelty Suppressed Feeding Test, chronic treatment) is “more sensitive”. Also, the “Latency to feed, treated versus untreated” value runs as follows: (TG (PTN-overexpressing) mice) “significant difference; also recorded: reversed”; (WT mice) “No significant differences”. For the same compound, the “Latency to feed, main effect of treatment (two-way ANOVA)” value (WT and TG mice, fluoxetine in drinking water 160 mg/l (approx. 20-25 mg/kg/day), with vs without fluoxetine) is “significant”.
